The molecules below were run on MDA-MB-436 (assay: normalised response (% of control), CellTiter-Glo; higher = more viable cells (100 = DMSO, 0 = benzethonium chloride kill control)). Conditions: incubation time: 72 h.
Method: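 DSRT, 72 h incubation, CellTox Green / CellTiter-Glo readout. Signal is normalised to DMSO and benzethonium chloride controls. Value is the normalised response at the highest dose.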

| Compound | normalised response |
| --- | --- |
| FC(F)c1nc2ccccc2n1-c1nc(N2CCOCC2)nc(N2CCOCC2)n1 [ZSTK474] (10000 nM) | 40.6% |
| COc1cc(Nc2ncc(F)c(Nc3ccc4c(n3)NC(=O)C(C)(C)O4)n2)cc(OC)c1OC [Tamatinib] (10000 nM) | 95.7% |
| C[C@@H]1CCN(C(=O)CC#N)C[C@@H]1N(C)c1ncnc2[nH]ccc12 [Tofacitinib] (5000 nM) | 110% |
| CCCC(CCC)C(=O)O [Valproic acid] (1000000 nM) | 100% |

These molecules were tested on DU-4475 (assay: normalised response (% of control), CellTox Green; higher = less cell death (100 = DMSO, 0 = benzethonium chloride kill control)). Conditions: incubation time: 72 h.
Procedure, shortened: (§1)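 Two readouts were taken after 72 h: CellTox Green fluorescence (485/520 nm) first, then CellTiter-Glo luminescence after 10 min at room temperature. Breast cancer cell lines had been seeded as 20 µl suspension into 384-well plates holding compound at 5 concentrations in 10-fold steps across a compound-specific 10,000-fold range. Each value is a normalised signal at a single concentration, with plates scaled to 0.1 % DMSO (100) and a positive kill control (0).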

| Compound | normalised response |
| --- | --- |
| COC(=O)C[C@](O)(CCCC(C)(C)O)C(=O)O[C@@H]1C(OC)=C[C@]23CCCN2CCc2cc4c(cc2[C@H]13)OCO4 [Omacetaxine] (10000 nM) | 98.5% |
| Cc1cc(C(C)Nc2ccccc2)c2nc(N3CCOCC3)cc(=O)n2c1 (stereo not given) [TGX-221] (10000 nM) | 94.7% |
| FC(F)c1nc2ccccc2n1-c1nc(N2CCOCC2)nc(N2CCOCC2)n1 [ZSTK474] (10000 nM) | 96.3% |
| COc1cc(Nc2ncc(F)c(Nc3ccc4c(n3)NC(=O)C(C)(C)O4)n2)cc(OC)c1OC [Tamatinib] (10000 nM) | 99% |
| C[C@@H]1CCN(C(=O)CC#N)C[C@@H]1N(C)c1ncnc2[nH]ccc12 [Tofacitinib] (5000 nM) | 108% |
| CCCC(CCC)C(=O)O [Valproic acid] (1000000 nM) | 97% |

These molecules were tested on MFM-223 in the same assay as above. Conditions: incubation time: 72 h.
Procedure, shortened: as §1

| Compound | normalised response |
| --- | --- |
| COC(=O)C[C@](O)(CCCC(C)(C)O)C(=O)O[C@@H]1C(OC)=C[C@]23CCCN2CCc2cc4c(cc2[C@H]13)OCO4 [Omacetaxine] (10000 nM) | 30.1% |
| Cc1cc(C(C)Nc2ccccc2)c2nc(N3CCOCC3)cc(=O)n2c1 (stereo not given) [TGX-221] (10000 nM) | 94.5% |
| FC(F)c1nc2ccccc2n1-c1nc(N2CCOCC2)nc(N2CCOCC2)n1 [ZSTK474] (10000 nM) | 84.7% |
| COc1cc(Nc2ncc(F)c(Nc3ccc4c(n3)NC(=O)C(C)(C)O4)n2)cc(OC)c1OC [Tamatinib] (10000 nM) | 94.1% |
| C[C@@H]1CCN(C(=O)CC#N)C[C@@H]1N(C)c1ncnc2[nH]ccc12 [Tofacitinib] (5000 nM) | 103% |
| CCCC(CCC)C(=O)O [Valproic acid] (1000000 nM) | 99.5% |

Each molecule was assayed on CAL-85-1 in the same assay as above. Conditions: incubation time: 72 h.
Procedure, shortened: as §1

| Compound | normalised response |
| --- | --- |
| COC(=O)C[C@](O)(CCCC(C)(C)O)C(=O)O[C@@H]1C(OC)=C[C@]23CCCN2CCc2cc4c(cc2[C@H]13)OCO4 [Omacetaxine] (10000 nM) | -46.3% |
| Cc1cc(C(C)Nc2ccccc2)c2nc(N3CCOCC3)cc(=O)n2c1 (stereo not given) [TGX-221] (10000 nM) | 106% |
| FC(F)c1nc2ccccc2n1-c1nc(N2CCOCC2)nc(N2CCOCC2)n1 [ZSTK474] (10000 nM) | 82.4% |
| COc1cc(Nc2ncc(F)c(Nc3ccc4c(n3)NC(=O)C(C)(C)O4)n2)cc(OC)c1OC [Tamatinib] (10000 nM) | 64.4% |
| C[C@@H]1CCN(C(=O)CC#N)C[C@@H]1N(C)c1ncnc2[nH]ccc12 [Tofacitinib] (5000 nM) | 63.8% |
| CCCC(CCC)C(=O)O [Valproic acid] (1000000 nM) | 97.4% |

These molecules were tested on MCF-10A in the same assay as above. Conditions: incubation time: 72 h.
Procedure, shortened: as §1

| Compound | normalised response |
| --- | --- |
| COC(=O)C[C@](O)(CCCC(C)(C)O)C(=O)O[C@@H]1C(OC)=C[C@]23CCCN2CCc2cc4c(cc2[C@H]13)OCO4 [Omacetaxine] (10000 nM) | -13.6% |
| FC(F)c1nc2ccccc2n1-c1nc(N2CCOCC2)nc(N2CCOCC2)n1 [ZSTK474] (10000 nM) | 106% |
| COc1cc(Nc2ncc(F)c(Nc3ccc4c(n3)NC(=O)C(C)(C)O4)n2)cc(OC)c1OC [Tamatinib] (10000 nM) | 103% |
| C[C@@H]1CCN(C(=O)CC#N)C[C@@H]1N(C)c1ncnc2[nH]ccc12 [Tofacitinib] (5000 nM) | 105% |
| CCCC(CCC)C(=O)O [Valproic acid] (1000000 nM) | 119% |

Each molecule was assayed on MDA-MB-468 in the same assay as above. Conditions: incubation time: 72 h.
Procedure, shortened: as §1

| Compound | normalised response |
| --- | --- |
| COC(=O)C[C@](O)(CCCC(C)(C)O)C(=O)O[C@@H]1C(OC)=C[C@]23CCCN2CCc2cc4c(cc2[C@H]13)OCO4 [Omacetaxine] (10000 nM) | 84.9% |
| Cc1cc(C(C)Nc2ccccc2)c2nc(N3CCOCC3)cc(=O)n2c1 (stereo not given) [TGX-221] (10000 nM) | 152% |
| FC(F)c1nc2ccccc2n1-c1nc(N2CCOCC2)nc(N2CCOCC2)n1 [ZSTK474] (10000 nM) | 157% |
| COc1cc(Nc2ncc(F)c(Nc3ccc4c(n3)NC(=O)C(C)(C)O4)n2)cc(OC)c1OC [Tamatinib] (10000 nM) | -90.8% |
| C[C@@H]1CCN(C(=O)CC#N)C[C@@H]1N(C)c1ncnc2[nH]ccc12 [Tofacitinib] (5000 nM) | 142% |
| CCCC(CCC)C(=O)O [Valproic acid] (1000000 nM) | 126% |

These molecules were tested on HCC1599 in the same assay as above. Conditions: incubation time: 72 h.
Procedure, shortened: as §1

| Compound | normalised response |
| --- | --- |
| COC(=O)C[C@](O)(CCCC(C)(C)O)C(=O)O[C@@H]1C(OC)=C[C@]23CCCN2CCc2cc4c(cc2[C@H]13)OCO4 [Omacetaxine] (10000 nM) | 88.5% |
| Cc1cc(C(C)Nc2ccccc2)c2nc(N3CCOCC3)cc(=O)n2c1 (stereo not given) [TGX-221] (10000 nM) | 91% |
| FC(F)c1nc2ccccc2n1-c1nc(N2CCOCC2)nc(N2CCOCC2)n1 [ZSTK474] (10000 nM) | 88.4% |
| COc1cc(Nc2ncc(F)c(Nc3ccc4c(n3)NC(=O)C(C)(C)O4)n2)cc(OC)c1OC [Tamatinib] (10000 nM) | 106% |
| C[C@@H]1CCN(C(=O)CC#N)C[C@@H]1N(C)c1ncnc2[nH]ccc12 [Tofacitinib] (5000 nM) | 114% |
| CCCC(CCC)C(=O)O [Valproic acid] (1000000 nM) | 93.9% |

Each molecule was assayed on HCC1937 in the same assay as above. Conditions: incubation time: 72 h.
Procedure, shortened: as §1

| Compound | normalised response |
| --- | --- |
| COC(=O)C[C@](O)(CCCC(C)(C)O)C(=O)O[C@@H]1C(OC)=C[C@]23CCCN2CCc2cc4c(cc2[C@H]13)OCO4 [Omacetaxine] (10000 nM) | 107% |
| Cc1cc(C(C)Nc2ccccc2)c2nc(N3CCOCC3)cc(=O)n2c1 (stereo not given) [TGX-221] (10000 nM) | 79.8% |
| FC(F)c1nc2ccccc2n1-c1nc(N2CCOCC2)nc(N2CCOCC2)n1 [ZSTK474] (10000 nM) | 86.7% |
| COc1cc(Nc2ncc(F)c(Nc3ccc4c(n3)NC(=O)C(C)(C)O4)n2)cc(OC)c1OC [Tamatinib] (10000 nM) | 97% |
| C[C@@H]1CCN(C(=O)CC#N)C[C@@H]1N(C)c1ncnc2[nH]ccc12 [Tofacitinib] (5000 nM) | 111% |
| CCCC(CCC)C(=O)O [Valproic acid] (1000000 nM) | 88.4% |

The molecules below were run on HDQ-P1 in the same assay as above. Conditions: incubation time: 72 h.
Procedure, shortened: as §1

| Compound | normalised response |
| --- | --- |
| COC(=O)C[C@](O)(CCCC(C)(C)O)C(=O)O[C@@H]1C(OC)=C[C@]23CCCN2CCc2cc4c(cc2[C@H]13)OCO4 [Omacetaxine] (10000 nM) | 64.9% |
| FC(F)c1nc2ccccc2n1-c1nc(N2CCOCC2)nc(N2CCOCC2)n1 [ZSTK474] (10000 nM) | 99.7% |
| COc1cc(Nc2ncc(F)c(Nc3ccc4c(n3)NC(=O)C(C)(C)O4)n2)cc(OC)c1OC [Tamatinib] (10000 nM) | 111% |
| C[C@@H]1CCN(C(=O)CC#N)C[C@@H]1N(C)c1ncnc2[nH]ccc12 [Tofacitinib] (5000 nM) | 113% |
| CCCC(CCC)C(=O)O [Valproic acid] (1000000 nM) | 107% |

What follows are molecules tested on CAL-148 in the same assay as above. Conditions: incubation time: 72 h.
Procedure, shortened: as §1

| Compound | normalised response |
| --- | --- |
| COC(=O)C[C@](O)(CCCC(C)(C)O)C(=O)O[C@@H]1C(OC)=C[C@]23CCCN2CCc2cc4c(cc2[C@H]13)OCO4 [Omacetaxine] (10000 nM) | 1.18% |
| Cc1cc(C(C)Nc2ccccc2)c2nc(N3CCOCC3)cc(=O)n2c1 (stereo not given) [TGX-221] (10000 nM) | 97.4% |
| FC(F)c1nc2ccccc2n1-c1nc(N2CCOCC2)nc(N2CCOCC2)n1 [ZSTK474] (10000 nM) | 68.1% |
| COc1cc(Nc2ncc(F)c(Nc3ccc4c(n3)NC(=O)C(C)(C)O4)n2)cc(OC)c1OC [Tamatinib] (10000 nM) | 65.1% |
| C[C@@H]1CCN(C(=O)CC#N)C[C@@H]1N(C)c1ncnc2[nH]ccc12 [Tofacitinib] (5000 nM) | 101% |

— the supplement of paper PMC4862054
